# Several values for one entry are separate records, joined by “and”; a condition that tells them apart may be missing. Identical values can stand only once. Like-named read-outs stand apart in the source and are kept apart here.
# How the values were obtained:
# [1] = test system: HCV replicon cells; assay: Cellular growth by percent confluence (IncuCyte time-lapse microscopy); format: cell-based; details: for effect on kinetics of cellular proliferation: 1 µM, % confluence every four hours; for minimum inhibitory concentration (MIC) for growth rate: lowest concentration with significant decrease in growth rate
# Excerpt: To distinguish between these two mechanisms, we directly measured cellular confluence (the percent of the culture well occupied by cells, % confluence) every four hours and quantified cellular replication rates.
# We next determined if 17-AAG slows cell growth at the same concentration at which it inhibits HCV replication. We quantified growth rate by assessing the change in % confluence between days 1 and 2 (% confluence/day) and measured the effect of growth rate as a function of dose.
# (§1) To assess cellular growth, 96 well plates ImageLock plates (Essen Instruments, Ann Arbor, MI) were seeded at a density of 5×10^3 cells/well in culture medium without G418. Percent confluence was quantified using bright phase images (at 10× magnification) acquired of each well every four hours in an IncuCyte (Essen Instuments, Ann Arbor, MI). Alternatively, 7.5×10^4 cells/well were plated in 6 well plates. Each day post drug addition, cells were dislodged from the tissue culture plate using 350 µL trypsin-EDTA and then quenched with 150 µL fetal bovine serum. The number of cells that exclude trypan-blue was determined using the Vi-Cell (Beckman Coulter, Fullerton, CA) in triplicate.
# [2] = test system: Infectious HCV (2a) Min3 virus in non-dividing Lunet-CD81 cells; assay: Extracellular HCV titer in HCV-infected non-dividing cultures; format: cell-based, hepatitis C virus; details: for reduction of infectious HCV titer: 10×EC50 (0.35 µM)
# Experimental: (§2) Because 17-AAG slows cellular proliferation at concentrations similar to its effective concentration for inhibiting HCV replication, we next assessed whether it inhibited HCV replication in non-dividing cells. We first established a non-dividing monolayer of Lunet-CD81 cells and then infected that monolayer with cell-culture adapted virus capable of spreading and infecting all of the cells in a culture. […] When the fully-infected non-dividing cultures were treated with DMSO alone, the extracellular viral titer remained relatively constant at between 10^5 and 10^6 TCID50/ml over time (Fig. 6A). […] The reduction in HCV titer caused by 17-AAG, may at least in part, result from the modest toxicity observed in the non-dividing monolayers at the concentrations used.
# HCV-infected non-dividing cultures were established by methods adapted from Sainz and Chisari. Briefly, Lunet-CD81 cells were seeded in 12-well plates at a density of 50,000 cells/well. The plates were incubated over-night at 37°C and subsequently DMSO was added to 1% final concentration. Cells were allowed to grow to confluence over three days. Infectious HCV (2a) with three adaptive mutations (the Min3 virus) (core K78E, NS2 W879R, and NS4B K1761N) was then added to each well at an MOI of five. […] 200 µl aliquots of the extracellular medium were saved daily, stored at −80°C, and subsequently used for infectious viral titering. After three days, the compound-medium was refreshed and time points were collected for seven days. Viral titers as a percentage of the DMSO-treated control were measured through diluting the extracellular medium 40-fold and using it to infect naïve Lunet-CD81 cells. After 72 hours of incubation, intracellular HCV replication was measured by following NS3-4A protease cleavage of a europium-labeled peptide.
# [3] = test system: genotype 1a replicon cells; assay: Cell number by count of Hoechst-stained nuclei; format: cell-based; details: three days; for number of cells per image / effect on number of cells per image: 1 µM compound
# Experimental: (§3) For direct assessment of cell number, genotype 1a replicon cells were seeded in 384 well plates at 1500 cells/well. Compounds were added as previously described. Cells were fixed in 1% paraformaldehyde (Electron Microscopy Sciences) and 25 µg/ml Hoechst 33342 (Invitrogen) in PBS for 30 minutes at room temperature. The fixed cells were washed twice with PBS, and images of each well were acquired with the ImageXpress Micro (Molecular Devices, Sunnyvale, CA). Nuclei were quantified with the cell scoring application in MetaXpress (Molecular Devices, Sunnyvale, CA).
# [4] = test system: HCV replicon cells; assay: CellTiter-Glo intracellular ATP (cell viability); details: three day assay
# Experimental: (§4) Renilla luciferase replicon cell assays were performed as previously described. Calcein AM (Anaspec, Fremont, CA) and CellTiter-Glo (Promega, Madison, WI) readouts were performed as instructed by the manufacturer.
# [5] = test system: HCV replicon cells; assay: Calcein AM intracellular esterase activity (cell viability)
# Experimental: (§5) Using a stable cell line replicating a luciferase-encoding HCV replicon, we measured viral replication levels (Renilla luciferase) across a range of drug concentrations (2 nM to 44.4 µM) three days post drug addition. In parallel, we measured intracellular esterase activity as a surrogate for cell viability using the Calcein AM reagent.
# as §4
# [6] = test system: luciferase-encoding HCV replicon; assay: HCV replicon Renilla luciferase antiviral assay; format: cell-based, hepatitis C virus; details: three days post drug addition
# Experimental: as §5, §4
# [7] = test system: HCVcc Min3 virus; assay: Antiviral potency in rapidly-dividing virus-infected cells (NS3-4A protease activity); format: cell-based, hepatitis C virus
# Experimental: To assess the antiviral potency of compounds in rapidly-dividing virus-infected cells. we adapted a method from a previously described assay. Briefly, 1500 cells per well were plated in 384 well-plates. Infection with the HCVcc Min3 virus (core K78E, NS2 W879R, and NS4B K1761N) was followed by addition of compound as described. After three days, intracellular NS3-4A protease activity was assessed. Luciferase, Calcein, CellTiter-Glo, and NS3-4A levels were expressed as a percent of the no-drug control.
# Supplementary file pone.0030286.s001.tif: Figure S1 CsA and 17-AAG maintain potency, similar to rapidly-dividing replicon cells, in rapidly-dividing virus-infected cells. The normalized amount of virus, as measured by enzymatic activity of the NS3-4A protease, was determined as a function of dose. […] (TIF) Click here for additional data file.
# [8] = test system: non-dividing Lunet-CD81 monolayers; assay: Cell number in non-dividing monolayers
# Experimental: as §2
# [9] = test system: HCV replicon cells; assay: Trypan-blue exclusion viable cell count; format: cell-based; details: 1 µM, multiple timepoints post drug addition
# Experimental: Cells treated were trypsinized and quantified at multiple timepoints post drug addition (Fig. 5C).
# as §1
# [10] = test system: adapted HCV (2a) in dividing cells; assay: Extracellular HCV titer in fully-infected dividing cultures; format: cell-based, hepatitis C virus
# Experimental: As a comparative control, we performed the same compound-treatment using fully-infected cultures that were still dividing (see Materials and Methods). […] The inhibitory effect of 17-AAG was diminished only as the cell cultures reached confluence (days 3 and 4 post-compound addition) (Fig. 6B).
# As a comparative control, fully-infected, growing cell cultures were prepared as well. Briefly, cells were plated at 25,000 cells/well on 12-well plates. After the cells adhered to the plate (four hours post-seeding), they were infected at an MOI of five using adapted HCV (2a) (see above). The HCV infection was permitted to spread until the cultures were fully infected (three days post-infection). Subsequently, compounds were added and extracellular medium was removed each day and analyzed as described above.
# [11] = CellTiter-Glo intracellular ATP (cell viability)
# Experimental: as §4
# [12] = Calcein AM intracellular esterase activity (cell viability)
# Experimental: as §5, §4
# [13] = Cell number by count of Hoechst-stained nuclei; format: cell-based; details: genotype 1a HCV replicon cells; Hoechst-stained nuclei, three days
# Experimental: as §3
smiles,measurement,setting,value
"C=CCNC1=C2C[C@@H](C)C[C@H](OC)[C@H](O)[C@@H](C)/C=C(\C)[C@H](OC(N)=O)[C@@H](OC)/C=C\C=C(/C)C(=O)NC(=CC1=O)C2=O [17-AAG, 17-(Allylamino)-17-demethoxygeldanamycin]",growth rate,"[1]; 22 nM, change in % confluence between days 1 and 2",18.0+/−1.1 % confluence/day
same,effect on kinetics of cellular proliferation,[1],slowed the kinetics of cellular proliferation significantly
same,minimum inhibitory concentration (MIC) for growth rate,[1],0.022 µM
same,antiviral effect on HCV titer,[2]; non-dividing cell-culture model of HCV replication,little antiviral effect
same,reduction of infectious HCV titer,"[2]; non-dividing cells, Day 7",0.3 log
same,reduction of infectious HCV titer,"[2]; non-dividing cells, day 2",0.6 log
same,number of cells per image,[3],~22 % of the controls
same,CC50,[3]; Hoechst-stained nuclei,5 nM
same,CC50,"[4]; read-out: CC50 Intracellular ATP, CellTiter-Glo",38 nM
same,CC50,"[5]; read-out: CC50 Calcein, intracellular esterase activity, three day assay",21000 nM
same,EC50,[6],12.1 nM and 12 nM
same,EC50,"[7]; rapidly-dividing virus-infected cells, NS3-4A protease activity, three days, read-out: EC50",35 nM
same,number of cells,"[8]; non-dividing monolayers, 10×EC50",74 % of the DMSO-treated control
same,effect on number of viable cells,[9],reduced the number of viable cells equally effectively
same,reduction of level of infectious HCV,"[10]; dividing cells, 10×EC50, after 24 hours of treatment",roughly 2 logs
COc1ccc2c(O[C@@H]3C[C@H]4C(=O)N[C@]5(C(=O)O)C[C@H]5/C=C\CCCCC[C@H](NC(=O)OC5CCCC5)C(=O)N4C3)cc(-c3csc(NC(C)C)n3)nc2c1 [BILN-2061],suppression of infectious HCV titer,"[2]; non-dividing cells, 10×EC50, sustained over 7-day time course",2 log
same,EC50,"[7]; Hepatitis C virus, 72 h",140 nM
same,effect on number of cells,"[8]; human, 10 ×EC50",neither CsA nor BILN 2061-treatment decreased the number of cells
same,effect on viral titers,"[10]; dividing and non-dividing cells, 10×EC50",inhibited viral titers in both dividing and non-dividing cells
"COc1cc2c(c(OC)c1OC)-c1ccc(OC)c(=O)cc1[C@@H](NC(C)=O)CC2 [Colchicine, colchicine]",intracellular ATP signal,[4]; maximal effect,< 7 % of the untreated controls
same,CC50 at 3 days,[11],16 nM
same,CC50 at 3 days,[12],> 44400 nM
"Nc1ccn([C@@H]2O[C@H](CO)[C@@H](O)C2(F)F)c(=O)n1 [Gemcitabine, gemcitabine]",number of cells per image,[3],~22 % of the controls
same,CC50 at 3 days,[13],4 nM
same,CC50 at 3 days,[11],6 nM
same,CC50 at 3 days,[12],> 44400 nM
same,EC50,"[6]; Hepatitis C virus, 72 h",12 nM
CNC(=O)c1c(-c2ccc(F)cc2)oc2cc(N(CCO)S(C)(=O)=O)c(C3CC3)cc12 [HCV-796],effect on cell proliferation (growth rate as a function of dose),[1]; any concentration tested,did not significantly impair cell proliferation at any concentration tested
same,effect on number of cells per image,[3],Neither 1 µM CsA (Fig. 4C) nor HCV-796 (Fig. 4A) altered the number of cells per image
same,toxicity by cell number,[3]; dose response,non-toxic at all concentrations tested
same,CC50 at 3 days,[13],> 44400 nM
same,CC50 at 3 days,[11],> 44400 nM
same,cytotoxicity (intracellular esterase activity),"[5]; 2 nM to 44.4 µM, three days",without any observable cytotoxicity
same,CC50 at 3 days,[12],> 44400 nM
same,EC50,"[6]; Hepatitis C virus, 72 h",15 nM
same,effect on number of viable cells,[9],Neither CsA nor HCV-796 treatment affected cell viability
"COc1ccc(C[C@H](N)C(=O)N[C@H]2[C@@H](O)[C@H](n3cnc4c(N(C)C)ncnc43)O[C@@H]2CO)cc1 [Puromycin, puromycin]",effect on kinetics of cellular proliferation,[1],rapid elimination of cells
same,minimum inhibitory concentration (MIC) for growth rate,[1],0.205 µM
same,effect on number of cells per image,[3],eliminated all cells
same,CC50 at 3 days,[13],52 nM
same,CC50 at 3 days,[11],516 nM
same,difference between CC50 (toxic concentration) and EC50 (antiviral concentration),[5]; Calcein assay vs replicon assay,≤ 4 fold
same,CC50 at 3 days,[12],1070 nM
same,EC50,"[6]; Hepatitis C virus, 72 h",290 nM
same,effect on number of viable cells,[9],reduced the number of viable cells equally effectively
